Results: patent US4446133A, “1-Phenyl-4-carbamoyl piperazine compounds, process for preparation thereof and utilizations thereof” (Misuitoatsu Chemicals, Inc., priority 1980, dated 1984)

Key:
[1] = system: adjuvant arthritis; assay: Test 2: Adjuvant Arthritis Test; format: in vivo, SD male rats; details: 5 mg/kg subcutaneous, 9 times, left hind leg, * P<0.05, ** P<0.01; for Swelling Ratio (average value ± standard variation), 15 days: control 84.4 ± 9.0; for Swelling Ratio (average value ± standard variation), 18 days: control 103.2 ± 9.7; for Swelling Ratio (average value ± standard variation), 21 days: control 107.5 ± 13.3
[2] = system: Sarcoma 180; assay: Test 4: Test of Antitumor Effect to Sarcoma 180 by Oral Administration; format: in vivo, ICR female mice; details: for D: average diameter of tumor, 2 weeks / D: average diameter of tumor, 4 weeks / D: average diameter of tumor, 6 weeks / D: average diameter of tumor, 8 weeks / D: average diameter of tumor, 10 weeks: 100 mg/kg oral once a day, 10 days; for D: average diameter of tumor, 2 weeks: control 10.6; for D: average diameter of tumor, 4 weeks: control 15.2; for D: average diameter of tumor, 6 weeks: control 22.4; for D: average diameter of tumor, 8 weeks: control 31.5; for D: average diameter of tumor, 10 weeks: control 37.6; for N: number of living mice, 0 weeks / N: number of living mice, 2 weeks / N: number of living mice, 4 weeks / N: number of living mice, 6 weeks / N: number of living mice, 8 weeks / N: number of living mice, 10 weeks: 100 mg/kg oral, of 6 mice; for N: number of living mice, 0 weeks / N: number of living mice, 2 weeks / N: number of living mice, 4 weeks / N: number of living mice, 6 weeks: control 6; for N: number of living mice, 8 weeks: control 5; for N: number of living mice, 10 weeks: control 1
Protocol: To the control group, a physiological saline solution was similarly administered. The dose of the compound was 100 mg per Kg of the body weight. The diameter D (mm) of the tumor was measured, and the average value and the number N of the living mice were determined to obtain results shown in Table 4.

[3] = system: Sarcoma 180; assay: Test 5: Test of Antitumor Effect to Sarcoma 180 by Subcutaneous Administration; format: in vivo, ICR female mice; details: 20 mg/kg subcutaneous; for D: average diameter of tumor, 2 weeks: control 10.8; for D: average diameter of tumor, 4 weeks: control 16.6; for D: average diameter of tumor, 6 weeks: control 20.3; for D: average diameter of tumor, 8 weeks: control 31.3; for D: average diameter of tumor, 10 weeks: control 40.5; for N: number of living mice, 0 weeks / N: number of living mice, 2 weeks / N: number of living mice, 4 weeks / N: number of living mice, 6 weeks / N: number of living mice, 8 weeks / N: number of living mice, 10 weeks: of 6 mice; for N: number of living mice, 0 weeks / N: number of living mice, 2 weeks / N: number of living mice, 4 weeks / N: number of living mice, 6 weeks: control 6; for N: number of living mice, 8 weeks: control 4; for N: number of living mice, 10 weeks: control 1
Protocol: To the control group, a physiological saline solution was similarly administered. […] The diameter D (mm) of the tumor was measured, and the average value and the number N of the living mice were determined to obtain results shown in Table 4.

Compound	D: average diameter of tumor, 2 weeks [2] [mm]	D: average diameter of tumor, 4 weeks [2] [mm]	D: average diameter of tumor, 6 weeks [2] [mm]	D: average diameter of tumor, 8 weeks [2] [mm]	D: average diameter of tumor, 10 weeks [2] [mm]	N: number of living mice, 0 weeks [2]	N: number of living mice, 2 weeks [2]	N: number of living mice, 4 weeks [2]	N: number of living mice, 6 weeks [2]	N: number of living mice, 8 weeks [2]	N: number of living mice, 10 weeks [2]	D: average diameter of tumor, 2 weeks [3] [mm]	D: average diameter of tumor, 4 weeks [3] [mm]	D: average diameter of tumor, 6 weeks [3] [mm]	D: average diameter of tumor, 8 weeks [3] [mm]	D: average diameter of tumor, 10 weeks [3] [mm]	N: number of living mice, 0 weeks [3]	N: number of living mice, 2 weeks [3]	N: number of living mice, 4 weeks [3]	N: number of living mice, 6 weeks [3]	also measured
CCN(CC)C(=O)N1CCN(c2ccccc2)CC1 [drawing 17]																					Swelling Ratio (average value ± standard variation), 15 days [1]: 47.0 ± 8.0%; Swelling Ratio (average value ± standard variation), 18 days [1]: 52.4 ± 9.2%; Swelling Ratio (average value ± standard variation), 21 days [1]: 59.8 ± 12.1%
CCN(CC)C(=O)N1CCN(c2ccc(Cl)cc2)CC1 [drawing 18]																					Swelling Ratio (average value ± standard variation), 15 days [1]: 57.9 ± 11.1%; Swelling Ratio (average value ± standard variation), 18 days [1]: 55.7 ± 9.7%; Swelling Ratio (average value ± standard variation), 21 days [1]: 62.8 ± 10.9%
CCN(CC)C(=O)N1CCN(c2ccc(OC)cc2)CC1 [drawing 19]																					Swelling Ratio (average value ± standard variation), 15 days [1]: 60.1 ± 11.3%; Swelling Ratio (average value ± standard variation), 18 days [1]: 57.1 ± 8.8%; Swelling Ratio (average value ± standard variation), 21 days [1]: 64.4 ± 10.5%
CCOC(=O)c1ccc(N2CCN(C(=O)N(CC)CC)CC2)cc1 [drawing 20]																					Swelling Ratio (average value ± standard variation), 15 days [1]: 63.7 ± 12.0%; Swelling Ratio (average value ± standard variation), 18 days [1]: 60.4 ± 9.2%; Swelling Ratio (average value ± standard variation), 21 days [1]: 66.9 ± 11.1%
CCN(CC)C(=O)N1CCN(c2ccc(C(=O)O)cc2)CC1 [drawing 21]																					Swelling Ratio (average value ± standard variation), 15 days [1]: 65.0 ± 10.2%; Swelling Ratio (average value ± standard variation), 18 days [1]: 64.6 ± 7.9%; Swelling Ratio (average value ± standard variation), 21 days [1]: 70.8 ± 10.7%
CCN(CC)C(=O)N1CCN(c2ccccc2)CC1 [drawing 29]	7.8	6.6	3.7	0.9	0	6	6	6	6	6	6										
CCN(CC)C(=O)N1CCN(c2ccc(Cl)cc2)CC1 [drawing 30]	7.1	5.8	3.0	0	0	6	6	6	6	6	6										
CCN(CC)C(=O)N1CCN(c2ccc(OC)cc2)CC1 [drawing 31]	8.1	4.6	5.0	2.2	0.6	6	6	6	6	6	6										
CCOC(=O)c1ccc(N2CCN(C(=O)N(CC)CC)CC2)cc1 [drawing 32]	9.2	7.4	4.8	3.2	0	6	6	6	6	6	6										
CCN(CC)C(=O)N1CCN(c2ccc(C(=O)O)cc2)CC1 [drawing 33]	6.8	3.5	4.4	2.2	0	6	6	6	6	6	6										
CCN(CC)C(=O)N1CCN(c2ccc(C(C)=O)cc2)CC1 [drawing 34]	8.4	4.7	5.1	6.6	0	6	6	6	6	6	6										
CCN(CC)C(=O)N1CCN(c2ccccc2)CC1 [drawing 35]												2.9	4.1	4.8	1.0	0	6	6	6	6	N: number of living mice, 8 weeks [3]: 6; N: number of living mice, 10 weeks [3]: 6
CCN(CC)C(=O)N1CCN(c2ccc(Cl)cc2)CC1 [drawing 36]												2.3	2.1	3.8	0	0	6	6	6	6	N: number of living mice, 8 weeks [3]: 6; N: number of living mice, 10 weeks [3]: 6
CCN(CC)C(=O)N1CCN(c2ccc(OC)cc2)CC1 [drawing 37]												3.0	1.0	2.2	5.3	4.0	6	6	6	6	N: number of living mice, 8 weeks [3]: 6; N: number of living mice, 10 weeks [3]: 6
CCOC(=O)c1ccc(N2CCN(C(=O)N(CC)CC)CC2)cc1 [drawing 38]												3.2	3.4	3.8	2.5	0.8	6	6	6	6	N: number of living mice, 8 weeks [3]: 6; N: number of living mice, 10 weeks [3]: 6
CCN(CC)C(=O)N1CCN(c2ccc(C(=O)O)cc2)CC1 [drawing 39]												2.1	4.4	4.8	3.9	0	6	6	6	6	N: number of living mice, 8 weeks [3]: 6; N: number of living mice, 10 weeks [3]: 6
CCN(CC)C(=O)N1CCN(c2ccc(C(C)=O)cc2)CC1 [drawing 40]												4.1	7.7	8.5	4.3	0	6	6	6	6	N: number of living mice, 8 weeks [3]: 6; N: number of living mice, 10 weeks [3]: 6
